Results reported in the NIST ThermoML archive (doi:10.1016/j.jct.2016.12.032).

What was measured:
[1] = 100 kPa, Liquid; for mass density: Vibrating tube method; for viscosity: Capillary tube (Ostwald / Ubbelohde) method; for speed of sound: Frequency=3 MHz, Sing-around technique in a fixed-path interferometer
[2] = xn = mol fraction of the nth substance listed; conditions: 100 kPa, Liquid, x1 = 1; for viscosity: Capillary tube (Ostwald / Ubbelohde) method; for mass density: Vibrating tube method
[3] = refractive index (Na D-line) (dimensionless); conditions: 100 kPa, Liquid, Standard Abbe refractometry

CCCC[n+]1ccn(C)c1.O=S(=O)([N-]S(=O)(=O)C(F)(F)F)C(F)(F)F
[1]
Conditions | mass density [kg/m3]
293.15 K | 1441.61
298.15 K | 1436.67
303.15 K | 1431.58
308.15 K | 1426.62
313.15 K | 1421.58
318.15 K | 1416.58
323.15 K | 1411.54

CCCC[n+]1ccn(C)c1.O=S(=O)([N-]S(=O)(=O)C(F)(F)F)C(F)(F)F + CC1CC(=O)O1
[2]
Conditions | mass density [kg/m3] | viscosity [mPa·s]
293.15 K | 1441.61 | 62.08
298.15 K | 1436.67 | 50.05
303.15 K | 1431.58 | 41.24
308.15 K | 1426.62 | 33.65
313.15 K | 1421.58 | 28.28
318.15 K | 1416.58 | 23.91
323.15 K | 1411.54 | 20.64

CCCC[n+]1ccn(C)c1.O=S(=O)([N-]S(=O)(=O)C(F)(F)F)C(F)(F)F + CC1CCC(=O)O1
[2]
Conditions | mass density [kg/m3] | viscosity [mPa·s]
293.15 K | 1441.61 | 62.08
298.15 K | 1436.67 | 50.05
303.15 K | 1431.58 | 41.24
308.15 K | 1426.62 | 33.65
313.15 K | 1421.58 | 28.28
318.15 K | 1416.58 | 23.91
323.15 K | 1411.54 | 20.64

CCCC[n+]1ccn(C)c1.O=S(=O)([N-]S(=O)(=O)C(F)(F)F)C(F)(F)F + O=C1CCCCCO1
[2]
Conditions | mass density [kg/m3] | viscosity [mPa·s]
293.15 K | 1441.61 | 62.08
298.15 K | 1436.67 | 50.05
303.15 K | 1431.58 | 41.24
308.15 K | 1426.62 | 33.65
313.15 K | 1421.58 | 28.28
318.15 K | 1416.58 | 23.91
323.15 K | 1411.54 | 20.64

CCCC[n+]1ccn(C)c1.O=S(=O)([N-]S(=O)(=O)C(F)(F)F)C(F)(F)F + O=C1CCCCO1
[2]
Conditions | mass density [kg/m3] | viscosity [mPa·s]
293.15 K | 1441.61 | 62.08
298.15 K | 1436.67 | 50.05
303.15 K | 1431.58 | 41.24
308.15 K | 1426.62 | 33.65
313.15 K | 1421.58 | 28.28
318.15 K | 1416.58 | 23.91
323.15 K | 1411.54 | 20.64

O=C1CCCCO1 [1-oxacyclohexan-2-one]
[1]
Conditions | mass density [kg/m3] | speed of sound [m/s] | viscosity [mPa·s]
293.15 K | 1108.53 | 1587.2 | 3.68
298.15 K | 1103.96 | 1569.2 | 3.3
303.15 K | 1099.44 | 1551.3 | 2.98
308.15 K | 1094.83 | 1533.5 | 2.7
313.15 K | 1090.27 | 1516 | 2.47
318.15 K | 1085.71 | 1498.6 | 2.25
323.15 K | 1081.16 | 1481.5 | 2.09

CC1CC(=O)O1 (stereo not drawn) [4-methyl-2-oxetanone]
Conditions | mass density, [1] [kg/m3] | refractive index, [3] | speed of sound, [1] [m/s] | viscosity, [1] [mPa·s]
293.15 K | 1055.93 | 1.414 | 1371 | 1.68
298.15 K | 1050.68 | 1.412 | 1352.8 | 1.55
303.15 K | 1045.31 | 1.41 | 1334.7 | 1.48
308.15 K | 1039.85 | 1.407 | 1316.7 | 1.4
313.15 K | 1034.33 | 1.405 | 1298.8 | 1.33
318.15 K | 1028.79 | 1.403 | 1281.1 | 1.25
323.15 K | 1023.19 | 1.401 | 1263.6 | 1.18

O=C1CCCCCO1 [6-hexanolactone]
Conditions | mass density, [1] [kg/m3] | refractive index, [3] | speed of sound, [1] [m/s] | viscosity, [1] [mPa·s]
293.15 K | 1075.92 | 1.463 | 1567.8 | 6.63
298.15 K | 1071.67 | 1.461 | 1548.3 | 5.76
303.15 K | 1067.41 | 1.459 | 1529 | 5.04
308.15 K | 1063.15 | 1.457 | 1510 | 4.44
313.15 K | 1058.9 | 1.455 | 1491.2 | 3.95
318.15 K | 1054.65 | 1.454 | 1472.7 | 3.53
323.15 K | 1050.4 | 1.452 | 1454.5 | 3.17

CC1CCC(=O)O1 (stereo not drawn) [γ-valerolactone]
Conditions | mass density, [1] [kg/m3] | refractive index, [3] | speed of sound, [1] [m/s] | viscosity, [1] [mPa·s]
293.15 K | 1053.99 | 1.434 | 1447.3 | 1.99
298.15 K | 1049.28 | 1.432 | 1429.2 | 1.82
303.15 K | 1044.58 | 1.43 | 1411.3 | 1.67
308.15 K | 1039.87 | 1.427 | 1393.5 | 1.53
313.15 K | 1035.16 | 1.425 | 1375.9 | 1.42
318.15 K | 1030.45 | 1.423 | 1358.4 | 1.32
323.15 K | 1025.74 | 1.421 | 1341.2 | 1.23
